Test results taken from patent publication US10995068B2, “Synthetic sphingolipid-like molecules, drugs, methods of their synthesis and methods of treatment” (The Regents of the University of California, priority 2015, dated 2021).

Assays:
[1] = system: murine hematopoietic cell line FL5.12; assay: Viability of FL5.12 cells by vital dye exclusion; assay type: cell-based; settings: Mus musculus; FL5.12 cells, 48 h, vital dye exclusion; n ≥3; read-out: IC50 (μM) [95% CI]
Procedure: Cell culture studies: FL5.12 cells (murine hematopoetic cells originally obtained from Craig Thompson, Memorial Sloan Kettering Cancer Center) were maintained at 0.1-0.5 million/ml in RPMI 1640 (Mediatech) supplemented with 10% fetal calf serum (FCS, Sigma-Aldrich), 10 mM Hepes (Mediatech), 500 pg/ml recombinant IL-3 (cat #575502, Biolegend), 55 μM β-mercaptoethanol (Sigma-Aldrich), 2 mM L-glutamine (Mediatech), and antibiotics. Cells were screened for Mycoplasma every 3 months using the Look-Out Mycoplasma PCR Detection kit (cat #MP0035, Sigma).
IC50 values were calculated using GraphPad Prism (GraphPad Software, Inc, La Jolla, Calif.).

[2] = system: PP2A; assay: PP2A phosphatase activity; assay type: biochemical, murine; settings: PP2A immunoprecipitated from FL5.12 cell lysates, phosphopeptide dephosphorylation
Text: Furthermore, many embodiments of the invention are directed to azacyclic constrained sphingolipid-like molecules inducing internalization of nutrient transporters via a mechanism that activates PP2A. […] Thus, activation of PP2A is very peculiar to certain sphingolipid structures. Activation of PP2A by FTY720 and SH-BC-893 also stimulated vacuolation, and as the PP2A inhibitors calyculin A and SV40 small t antigen, each blocked this effect (FIG. 59C). Of note, YM201636-induced vacuolation was unaffected by PP2A inhibition (FIG. 60B). In addition, inhibiting PP2A restored PIKfyve to the proper location within vacuoles in cells treated with FTY720 or SH-BC-893 (FIG. 57D).
PP2A phosphatase activity. PP2A activity was measured using a PP2A immunoprecipitation phosphatase assay kit (EMD Millipore). Briefly, the catalytic subunit of PP2A was immunoprecipitated from FL5.12 cell lysates with 4 μg anti-PP2A, C subunit. After four washes, the activity of immunoprecipitated PP2A was assessed by dephosphorylation of the phosphopeptide according to the manufacturer's instructions in the presence or absence of C2-ceramide, dihydro-C2-ceramide, FTY720, SH-BC-893, or calyculinA.

[3] = biological target: T1, S1P receptor 3 (Homo sapiens, UniProt Q99500); assay: S1P receptor activation in CHO cells, S1P3; assay type: cell-based; settings: CHO cells over-expressing human S1P3
T1 construct: expressed in transfected cells
T1 sequence (Q99500 whole entry): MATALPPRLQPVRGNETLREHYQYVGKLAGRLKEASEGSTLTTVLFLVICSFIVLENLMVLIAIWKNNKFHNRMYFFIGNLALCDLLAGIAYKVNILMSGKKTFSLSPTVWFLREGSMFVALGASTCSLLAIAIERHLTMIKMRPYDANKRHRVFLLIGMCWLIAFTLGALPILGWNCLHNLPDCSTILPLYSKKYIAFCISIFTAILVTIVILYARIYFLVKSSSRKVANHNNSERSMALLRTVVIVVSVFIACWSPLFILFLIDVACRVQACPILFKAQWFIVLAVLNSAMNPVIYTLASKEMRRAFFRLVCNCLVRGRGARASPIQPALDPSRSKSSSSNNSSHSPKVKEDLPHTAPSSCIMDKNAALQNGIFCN
Text: (§1) Phosphorylation may have effects on S1P receptor activity that could cause bradycardia. Bradycardia, the dose-limiting toxicity that prevents the use of FTY720 in cancer patients, stems from FTY720-P's actions on S1P receptors 1 and 3. (Camm, J., et al. (2014) Am. Heart J. 168, 632-644; Cohen, J. A., Chun, J. (2011) Ann. Neurol. 69, 759-777; Sanna, M. G., et al. (2004) J. Biol. Chem. 279, 13839-13848; the disclosures of which are incorporated herein by reference). Phosphorylation by sphingosine kinase may make compounds competent to activate S1P receptors. FTY720, for example, when phosphorylated is known to activate S1P receptors 1 and 3. Because compound 5 could be phosphorylated, the activity of compound 5 and its phosphate 5-P (FIG. 28) on S1P receptors was evaluated (FIG. 32).
(§2) 51P1-5 activation: Chinese hamster ovary (CHO) cells stably over-expressing the different human 51P receptor subtypes are used. S1P1, S1P4 and S1P5 overexpressing CHO cells are cultured in medium containing alpha-MEM supplemented with 10% FBS, 50 μg/ml gentamycin and 0.5 mg/ml G418. S1P2 and S1P3 overexpressing CHO cells are cultured in RPMI containing 10% FBS, 50 μg/ml gentamycin and 0.5 mg/ml G418. Prior to stimulation, cells are rendered serum-free for 24 h. Stimulation is carried out for 10 min in serum-free DMEM containing 0.1 mg/ml of fatty-acid free BSA in the absence or presence of the various compounds or 51P. Protein lysates are prepared using a buffer containing (50 mM Tris pH 7.4, 150 mM NaCl, 10% glycerol, 1% Triton X-100, 2 mM EDTA, 2 mM EGTA, 40 mM β-glycerophosphate, 50 mM sodium fluoride, 10 mM sodium pyrophosphate, 2 mM dithiothreitol, 0.2 mM sodium orthovanadate). Cells are homogenized by one 5 sec burst in a MSE Ultrasonic Disintegrator, centrifuged and taken for protein determination. Equal amounts of protein are separated by SDS-PAGE (10% polyacrylamide gel), transferred to nitrocellulose membranes and subjected to Western blot analysis. Bands were stained using IRDye® secondary antibodies and visualized by the LICOR Odyssey® Fc Imaging system. Antibodies against phospho-Thr202/Tyr204-p42/p44-MAPK and phospho-Ser PKC substrate are from Cell Signaling, Frankfurt am Main, Germany. Polyclonal antisera against total p42 and total p44 were generated and characterized as previously described. (Huwiler, A.; Pfeilschifter, J. Br. J. Pharmacol. 1994, 113, 1455-1463; disclosure of which is incorporated herein by reference).

[4] = biological target: T2, S1P receptor 4 (Homo sapiens, UniProt O95977); assay: S1P receptor activation in CHO cells, S1P4; assay type: cell-based; settings: CHO cells over-expressing human S1P4
T2 construct: expressed in transfected cells
T2 sequence (O95977 1-384): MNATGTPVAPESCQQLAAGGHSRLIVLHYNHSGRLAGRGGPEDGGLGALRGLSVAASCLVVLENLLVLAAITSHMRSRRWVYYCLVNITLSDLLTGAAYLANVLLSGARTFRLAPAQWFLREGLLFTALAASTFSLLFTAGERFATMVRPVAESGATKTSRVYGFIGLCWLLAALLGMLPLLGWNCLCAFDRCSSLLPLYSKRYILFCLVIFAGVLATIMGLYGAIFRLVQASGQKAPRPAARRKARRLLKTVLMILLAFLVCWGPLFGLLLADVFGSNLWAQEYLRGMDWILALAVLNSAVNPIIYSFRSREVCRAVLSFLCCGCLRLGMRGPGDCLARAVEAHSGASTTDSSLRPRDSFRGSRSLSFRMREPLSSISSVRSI
Text: as §1, §2

| SMILES | IC50 [1] [µM] | PP2A activation [2] | activation of S1P receptor 3 [3] | activation of S1P receptor 4 [4] |
| --- | --- | --- | --- | --- |
| CCCCCCCCc1ccc(CCC(N)(CO)CO)cc1.Cl [FTY720, 2-Amino-2-[2-(4-octylphenyl)ethyl]propane 1,3-diol hydrochloride, reference compound] | 2.4 | activating PP2A | – | – |
| CCCCCCCCc1ccc([C@H]2CCN[C@@H]2CO)cc1.Cl [Compound 5, (2S,3R)-2-(hydroxymethyl)-3-(4-octylphenyl)Pyrrolidinium chloride] | 1.9 | activating PP2A | failed to activate | failed to activate |
| CCCCCCCCc1ccc([C@@H]2CCN[C@H]2CO)cc1.Cl [Compound 6] | – | – | failed to activate | failed to activate |
